The target of one assay is T1, Gox0313 (Gluconobacter oxydans, UniProt Q5FU50).
T1 sequence (Q5FU50 1-343): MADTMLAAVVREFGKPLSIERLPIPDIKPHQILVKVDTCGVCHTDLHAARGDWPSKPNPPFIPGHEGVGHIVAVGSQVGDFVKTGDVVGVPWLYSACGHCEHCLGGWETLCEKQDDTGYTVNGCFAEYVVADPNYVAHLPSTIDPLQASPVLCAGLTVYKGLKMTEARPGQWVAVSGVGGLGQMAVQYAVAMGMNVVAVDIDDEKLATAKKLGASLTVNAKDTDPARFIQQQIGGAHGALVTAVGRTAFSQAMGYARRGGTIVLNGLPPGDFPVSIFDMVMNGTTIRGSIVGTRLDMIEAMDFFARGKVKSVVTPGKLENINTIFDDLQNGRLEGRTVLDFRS
Description: Enzyme activity assay (rate of NAD(P)H decrease at 340 nm), Gox0313. Format: biochemical. The conditions noted are these: Tab. 6, Gox0313; substrate reduction, cofactor NADH; 10 mM substrate, pH 7.0, 30 °C. Here is the method: (§1) Measurment of enzyme activity: NADPH-dependent alpha-ketocarbonyl reductases were assayed by a routine method used for NAD(P)-linked enzymes by recording the rate of decrease of NADPH at 340 nm (ε = 6.22 mM^-1 x cm^-1)) with substrates at 30 °C. The reaction mixture (1 ml) for reduction of alpha-ketocarbonyl substrates contained 10 mM substrate, 40 mM potassium phosphate buffer pH 7.0, 0.025 mM NAD(P)H , and the enzyme. Reactions were induced by addition of enzyme or substrate. One unit of enzyme activity was defined as the amount of enzyme catalyzing the conversion of 1 µmol of pyridine nucleotide per min at 30 °C.
(§2) NADPH-dependent α-ketocarbonyl reductases were assayed by a routine method used for NAD(P)-linked enzymes by recording the rate of decrease of NADPH at 340 nm (ε = 6.22 mM^-1.cm^-1) with substrates at 30 °C. The reaction mixture (1 ml) for reduction of alpha-ketocarbonyl substrates contained 10 mM substrate, 40 mM potassium phosphate buffer pH 7.0, 0.025 mM NADPH , and the enzyme. Reactions were induced by addition of enzyme or substrate. One unit of enzyme activity was defined as the amount of enzyme catalyzing the conversion of 1 µmol of pyridine nucleotide per min at 30 °C.
(§3) For each enzyme (Gox0313, Gox0502, Gox0644, Gox0646, Gox1615, Gox2107, and Gox2684 respectively), fresh enzyme preparations were used to validate the substrate spectrum and the kinetic activity. […] Purified NAD(P)-dependent oxidoreductases were assayed at 30 °C by a routine method used for NAD(P)-linked enzymes by recording the rate of decrease of NAD(P)H at 340 nm (ε = […]) with substrates capable of reduction reactions. The standard reaction mixture (1 ml) for the reduction reactions of substrates contained 10 mM substrate, 40 mM potassium phosphate buffer (K-phosphate buffer) pH 7.0, 0.05 mM NAD(P)H, and the enzyme unless otherwise noted. Reactions were induced by addition of enzyme or substrate. One unit of enzyme activity was defined as the amount of enzyme catalyzing the conversion of 1 µmol of pyridine nucleotide per min at 30 °C. Measurement of the protein content was performed by the method of Bradford in Anal. Biochem. 72:248-254 (1976). Table 3: Summary of enzymatic activities with α-diketones, α-ketoaldehydes and /or α-ketoesters

In another assay the target is T2, Gox1615 (Gluconobacter oxydans, UniProt Q5FQJ0).
T2 sequence (Q5FQJ0 1-332): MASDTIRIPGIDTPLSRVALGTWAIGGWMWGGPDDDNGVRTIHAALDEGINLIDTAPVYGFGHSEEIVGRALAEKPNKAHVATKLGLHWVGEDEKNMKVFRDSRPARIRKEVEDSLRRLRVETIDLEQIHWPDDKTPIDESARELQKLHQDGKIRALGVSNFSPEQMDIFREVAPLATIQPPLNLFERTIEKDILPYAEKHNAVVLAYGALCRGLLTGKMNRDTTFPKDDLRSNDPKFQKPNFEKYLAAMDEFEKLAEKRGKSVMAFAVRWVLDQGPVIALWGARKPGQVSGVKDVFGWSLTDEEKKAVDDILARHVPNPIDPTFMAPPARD
Description: Enzyme activity assay (rate of NAD(P)H decrease at 340 nm), Gox1615. Format: biochemical. Particulars: Tab. 5, Gox1615; cofactor NADPH; 10 mM substrate, pH 7.0, 30 °C. The protocol: as §1, §2, §3

Assay [1] deals with T3, Gox2107 (Gluconobacter oxydans, UniProt Q5FP53). Description: Enzyme kinetics (Lineweaver-Burk plots), Gox2107. The class given is biochemical. The conditions noted are these: NADPH-dependent reduction. Here is the method: Determination of pH and temperature optima and enzyme kinetics: The optimum pH for enzyme activities was determined by a modified method of Salusjärvi, T. et al., Appl. Microbiol. Biotechnol. 65:306-314 (2004) using the following buffer system (50 mM final concentration each): sodium acetate pH 4.5 - 6.5, potassium phosphate pH 6.5 - 8.0, Tris-HCl pH 8.0 - 10. Temperature optima for the biocatalysts were determined under standard reaction conditions at temperatures ranging from 20 - 80 °C. The Michaelis constant (Km) for the proteins was determined from purified enzyme by Lineweaver-Burk plots. Assays were performed at optimum pH for each enzyme and at 30 °C using the top substrate and a targeted substrate. The Km for each substrate was calculated using concentrations of 0.0025 to 10 mM, and the Km NAD(P)H and NAD(P) was calculated using concentrations of 0.01 to 0.5 mM
The Michaelis constants were determined from purified enzyme by Lineweaver-Burk plots. The Km and Vmax values for the substrates were calculated using concentrations of 0.025 to 10 mM, The optimal pH values and temperatures for enzyme activities are also shown in Tab. 11. Tab. 11: Summary of kinetic parameters

Assay [2] deals with T4, Gox0502 (Gluconobacter oxydans, UniProt Q5FTL6).
T4 sequence (Q5FTL6 1-361): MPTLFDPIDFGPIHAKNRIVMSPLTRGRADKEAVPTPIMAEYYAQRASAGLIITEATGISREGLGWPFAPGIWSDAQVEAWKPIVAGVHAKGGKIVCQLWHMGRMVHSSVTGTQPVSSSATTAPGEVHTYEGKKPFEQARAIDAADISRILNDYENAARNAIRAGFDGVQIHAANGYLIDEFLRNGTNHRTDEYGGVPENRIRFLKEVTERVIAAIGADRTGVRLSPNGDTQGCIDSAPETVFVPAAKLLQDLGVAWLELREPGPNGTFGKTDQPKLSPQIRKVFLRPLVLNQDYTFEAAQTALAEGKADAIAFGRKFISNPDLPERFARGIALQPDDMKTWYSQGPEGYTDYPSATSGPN
The assay can be described thus: Enzyme kinetics (Lineweaver-Burk plots), Gox0502. Particulars: NADPH-dependent reduction.

Assay [3] concerns the target T4, Gox0502. Description: Enzyme activity assay (rate of NAD(P)H decrease at 340 nm), Gox0502. Format: biochemical. Further details: Strep-tag II (N); made in house; host or cells: E. coli BL21 or E. coli DH5α (pASK-IBA5). The conditions noted are these: Tab. 7, Gox0502; cofactor NADPH; 10 mM substrate, pH 7.0, 30 °C. Here is the method:
as §1, §2, §3

Assay [4] deals with T3, Gox2107. Description: Enzyme activity assay (rate of NAD(P)H decrease at 340 nm), Gox2107. Format: biochemical. Here is the method: as §1, §2, §3
The target in the next assay is T5, Gox2684 (Gluconobacter oxydans, UniProt Q5HXK5).
T5 sequence (Q5HXK5 1-357): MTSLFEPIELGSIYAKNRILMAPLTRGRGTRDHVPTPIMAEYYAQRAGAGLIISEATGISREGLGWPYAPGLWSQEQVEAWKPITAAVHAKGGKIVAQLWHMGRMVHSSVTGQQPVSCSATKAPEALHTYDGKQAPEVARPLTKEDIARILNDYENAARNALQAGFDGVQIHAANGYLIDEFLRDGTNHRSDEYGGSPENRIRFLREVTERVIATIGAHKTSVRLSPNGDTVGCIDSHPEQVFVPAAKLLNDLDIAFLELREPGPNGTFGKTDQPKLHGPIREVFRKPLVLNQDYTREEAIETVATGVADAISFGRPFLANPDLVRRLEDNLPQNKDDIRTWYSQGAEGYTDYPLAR
Description: Enzyme activity assay (rate of NAD(P)H decrease at 340 nm), Gox2684. The class given is biochemical. Particulars: Tab. 8, GOX2684; cofactor NADPH; 10 mM substrate, pH 7.0, 30 °C. Here is the method:
as §1, §2, §3

In a further assay the target is T6, Gox1122 (Gluconobacter oxydans, UniProt Q5FRV6).
T6 sequence (Q5FRV6 1-463): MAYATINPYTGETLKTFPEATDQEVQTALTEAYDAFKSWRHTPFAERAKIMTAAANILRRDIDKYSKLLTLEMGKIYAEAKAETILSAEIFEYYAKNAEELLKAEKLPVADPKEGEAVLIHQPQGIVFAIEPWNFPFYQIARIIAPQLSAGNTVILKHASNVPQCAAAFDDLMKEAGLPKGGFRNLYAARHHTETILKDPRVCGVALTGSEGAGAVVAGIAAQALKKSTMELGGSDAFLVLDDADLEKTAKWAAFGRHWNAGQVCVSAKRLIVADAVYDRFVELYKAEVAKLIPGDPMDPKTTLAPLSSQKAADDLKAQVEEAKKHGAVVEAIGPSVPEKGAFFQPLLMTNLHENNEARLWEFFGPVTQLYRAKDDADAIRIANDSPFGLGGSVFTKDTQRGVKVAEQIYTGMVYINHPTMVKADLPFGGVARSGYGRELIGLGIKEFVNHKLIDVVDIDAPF
Particulars: using NADPH, pH range of 4-10. An excerpt:
The enzyme is used in a combined enzymatic reaction between the NADPH-dependent reductases (see above) that form α-hydroxy carbonyl compounds.

The values below come from patent EP2119770B1, “Production of alpha-oxyfunctionalized carbonyl compounds” (priority 2008, dated 2009).

Turning to `C=CC(C)=O` [3-buten-2-one], the “Specific Activity” value at Gox0313 is 1.9 U/mg; at Gox1615, 0.7 U/mg; on Gox0502 [3] it was 21 U/mg; at Gox2107 [4] (Tab. 7, Gox2107, cofactor NADPH, 10 mM substrate, pH 7.0, 30 °C), 120 U/mg. The Vmax at Gox2107 [1] was found to be 119 U/mg protein; at Gox0502 [2], 21 U/mg protein. The same compound had an activities at Gox2107 [4] (Gox2107, reduction with NADPH) of 119 µmol/mg/min. Also, the “Specific Activities” value on Gox2684 is 8.8 U/mg.
Regarding `CC(=O)O` [acetic acid], the “reverse reduction reaction (result in words)” value on Gox1122 is “No reverse reduction reaction”.
